Literature values in patent US20200022949A1, “COMPOSITION AND METHOD FOR THE ALLEVIATION OF EFFECTS OF ALCOHOL CONSUMPTION” (Detoxicated Inc., priority 2018, published 2020).

Tested on: non-alcoholic fatty liver disease
Conditions: patients with non-alcoholic fatty liver disease

For `O=C1c2c(O)cc(O)cc2O[C@H](c2cc(O)c(O)c(O)c2)[C@H]1O` [DHM, dihydromyricetin], the “liver health (levels of liver enzymes and inflammatory cytokines)” value is listed as “improve liver health”.
